The subject of experiment [1] is BT-549 cells. The settings on record: RAD51 inhibitor; cited from earlier work.
Experiment [2] deals with c-Jun (Homo sapiens, UniProt P05412). The settings on record: cited from earlier work.
Experiment [3] has as its target His-tagged recombinant c-Jun (UniProt P05412 1-331). Kind of experiment: BLI.

Ends that are not written are not given here. * marks the point of attachment. Biotin = O=C1N[C@H]2[C@H](CS[C@H]2CCCCC(=O)*)N1

Sequence of c-Jun (P05412 whole entry): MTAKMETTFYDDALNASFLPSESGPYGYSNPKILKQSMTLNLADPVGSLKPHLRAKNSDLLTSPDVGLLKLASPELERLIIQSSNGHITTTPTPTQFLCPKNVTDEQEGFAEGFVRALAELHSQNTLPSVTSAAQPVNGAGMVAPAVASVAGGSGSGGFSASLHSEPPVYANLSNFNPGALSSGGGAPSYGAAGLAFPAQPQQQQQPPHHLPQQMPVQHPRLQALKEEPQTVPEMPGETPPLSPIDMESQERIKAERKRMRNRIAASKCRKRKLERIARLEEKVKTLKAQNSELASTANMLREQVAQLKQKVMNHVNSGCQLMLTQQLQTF
Sequence of His-tagged recombinant c-Jun (P05412 whole entry): as above

For the molecule `O=C1C(Cl)=C(N2CCOCC2)C(=O)N1c1ccc(Cl)c(Cl)c1` [RI-1], the “effect on efficiency of double stranded DNA break repair” value in experiment [1] is “little to no effect”. Take `CC[C@]1(O)C[C@@H]2CN(CCc3c([nH]c4ccccc34)[C@@](C(=O)OC)(c3cc4c(cc3OC)N(C)[C@H]3[C@@](O)(C(=O)OC)[C@H](OC(C)=O)[C@]5(CC)C=CCN6CC[C@]43[C@@H]65)C2)C1` [Vinblastine]: in experiment [2], the p21 result is given as “decrease in p21” and the “phosphorylated c-Jun” value is “increasing phosphorylated c-Jun”.

B1: CAPER Peptide HCC1.3 (peptide)
peptide: Biotin-YGRKKRRQRRRRLQLMARLAEGTGLQIPPAAQQALQMSGSLAFGAVADLQTRLSQQ
As to B1, in experiment [3], the Kd (as a rule, a measure of binding affinity in units of concentration) turned out to be 8.89 nM.

B2: CAPER Peptide HCC1.4 (peptide)
peptide: Biotin-YGRKKRRQRRRRLQLMARLAEGTGLQIPPAAQQALQMSGSLAFGAVAEFSFVIDLQ
In the case of B2, in experiment [3], the Kd came out at 25.6 nM.
